# Measurements as given in ChEMBL document CHEMBL1143657, “Saucerneol B derivatives as human acyl-CoA: cholesterol acyltransferase inhibitors” (Bioorg Med Chem Lett, 2005).
# Molecular target: T1, Sterol O-acyltransferase 2 (Homo sapiens, UniProt O75908)
# T1 sequence (O75908 whole entry): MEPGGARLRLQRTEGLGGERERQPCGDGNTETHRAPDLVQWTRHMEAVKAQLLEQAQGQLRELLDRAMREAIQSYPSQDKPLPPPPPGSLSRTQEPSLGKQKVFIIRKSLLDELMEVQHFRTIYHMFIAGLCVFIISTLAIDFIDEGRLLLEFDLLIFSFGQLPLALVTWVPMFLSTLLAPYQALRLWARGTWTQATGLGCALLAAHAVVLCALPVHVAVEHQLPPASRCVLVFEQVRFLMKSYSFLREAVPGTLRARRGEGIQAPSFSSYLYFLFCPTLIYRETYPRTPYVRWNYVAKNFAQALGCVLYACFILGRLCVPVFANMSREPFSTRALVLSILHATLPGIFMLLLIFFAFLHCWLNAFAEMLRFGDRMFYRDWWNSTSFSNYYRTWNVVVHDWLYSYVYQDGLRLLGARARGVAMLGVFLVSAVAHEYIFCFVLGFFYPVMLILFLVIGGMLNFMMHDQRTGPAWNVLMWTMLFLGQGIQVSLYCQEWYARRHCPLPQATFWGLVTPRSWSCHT
# Test: In vitro inhibitory concentration against human Acyl coenzyme A:cholesterol acyltransferase 2 expressed in Hi5 cells
# Set-up: species or system BTI-TN-5B1-4
# Details: not given
row,IC50,Compound
1,8 µM,COc1ccc(C(O)C(C)Oc2ccc([C@H]3O[C@H](c4ccc(OC(C)C(O)c5ccc(OC)c(OC)c5)c(OC)c4)[C@H](C)[C@H]3C)cc2OC)cc1OC (some centres not stated)

# Molecular target: T2, Sterol O-acyltransferase 1 (Homo sapiens) (UniProt P35610)
# T2 sequence (whole entry): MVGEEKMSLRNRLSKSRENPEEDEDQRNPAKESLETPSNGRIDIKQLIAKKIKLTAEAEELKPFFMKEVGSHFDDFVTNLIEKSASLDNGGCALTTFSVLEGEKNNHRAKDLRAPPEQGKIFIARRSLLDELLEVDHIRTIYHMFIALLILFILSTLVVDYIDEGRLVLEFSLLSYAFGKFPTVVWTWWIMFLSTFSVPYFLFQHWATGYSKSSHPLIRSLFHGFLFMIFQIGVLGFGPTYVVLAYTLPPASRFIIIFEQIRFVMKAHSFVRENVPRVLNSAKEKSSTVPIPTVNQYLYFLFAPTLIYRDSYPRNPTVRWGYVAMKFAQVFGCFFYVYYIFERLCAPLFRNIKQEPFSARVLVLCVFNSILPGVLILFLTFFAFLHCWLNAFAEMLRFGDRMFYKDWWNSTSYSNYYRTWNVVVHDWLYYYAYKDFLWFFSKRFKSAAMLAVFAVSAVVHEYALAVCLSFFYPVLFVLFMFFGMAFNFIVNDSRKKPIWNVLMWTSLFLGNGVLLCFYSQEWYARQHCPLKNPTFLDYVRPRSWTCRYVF
# Test: In vitro inhibition of human Acyl coenzyme A:cholesterol acyltransferase 1 expressed in Hi5 cells
# Details: BTI-TN-5B1-4, concentration not given here
row,inhibition,Compound
1,44%,CCCCCCCCOC(c1ccc2c(c1)OCO2)C(OC)Oc1ccc([C@H]2O[C@@H](c3ccc(OC)c(OC)c3)[C@@H](C)[C@H]2C)cc1OC (some centres not stated)
2,25%,CCCCCCCCCOC(c1ccc2c(c1)OCO2)C(OC)Oc1ccc([C@H]2O[C@@H](c3ccc(OC)c(OC)c3)[C@@H](C)[C@H]2C)cc1OC (some centres not stated)

# Molecular target: T3, Sterol O-acyltransferase 2 (Homo sapiens) (UniProt O75908)
# T3 sequence (whole entry): T1 sequence (O75908 whole entry)
# Test: In vitro inhibition of human Acyl coenzyme A:cholesterol acyltransferase 2 expressed in Hi5 cells at 125 uM
# Details: BTI-TN-5B1-4
row,inhibition,Compound
1,33%,CCCCCCOC(c1ccc2c(c1)OCO2)C(OC)Oc1ccc([C@H]2O[C@@H](c3ccc(OC)c(OC)c3)[C@@H](C)[C@H]2C)cc1OC (some centres not stated)
2,26%,CCCCCCCOC(c1ccc2c(c1)OCO2)C(OC)Oc1ccc([C@H]2O[C@@H](c3ccc(OC)c(OC)c3)[C@@H](C)[C@H]2C)cc1OC (some centres not stated)
3,45%,COc1ccc([C@@H]2O[C@H](c3ccc(OC(OC)C(OC)c4ccc5c(c4)OCO5)c(OC)c3)[C@H](C)[C@@H]2C)cc1OC (some centres not stated)
4,19%,CCCCCCCCOC(c1ccc2c(c1)OCO2)C(OC)Oc1ccc([C@H]2O[C@@H](c3ccc(OC)c(OC)c3)[C@@H](C)[C@H]2C)cc1OC (some centres not stated)
5,28%,CCCCOC(c1ccc2c(c1)OCO2)C(OC)Oc1ccc([C@H]2O[C@@H](c3ccc(OC)c(OC)c3)[C@@H](C)[C@H]2C)cc1OC (some centres not stated)
6,33%,CCCOC(c1ccc2c(c1)OCO2)C(OC)Oc1ccc([C@H]2O[C@@H](c3ccc(OC)c(OC)c3)[C@@H](C)[C@H]2C)cc1OC (some centres not stated)
7,10%,CCCCCCCCCOC(c1ccc2c(c1)OCO2)C(OC)Oc1ccc([C@H]2O[C@@H](c3ccc(OC)c(OC)c3)[C@@H](C)[C@H]2C)cc1OC (some centres not stated)
8,33%,CCCCCOC(c1ccc2c(c1)OCO2)C(OC)Oc1ccc([C@H]2O[C@@H](c3ccc(OC)c(OC)c3)[C@@H](C)[C@H]2C)cc1OC (some centres not stated)
9,29%,CCOC(c1ccc2c(c1)OCO2)C(OC)Oc1ccc([C@H]2O[C@@H](c3ccc(OC)c(OC)c3)[C@@H](C)[C@H]2C)cc1OC (some centres not stated)
